These results are taken from patent publication US11952365B2, “Anti-viral compounds” (Aligos Therapeutics, Inc., priority 2020, dated 2024).

Read-outs that look alike come from different tables or passages of the source.

Series [1] is described as follows: in vitro. The following applies: African green monkey, VeroE6 + CP (CC50), Vero E6-eGFP cells with CP-100356, absence of virus, MTS.
For series [2], the target named is 3CLpro (Severe acute respiratory syndrome coronavirus 2, UniProt P0DTD1). Put plainly: SARS-CoV-2 3CLpro protease assay (duplex, SAMDI-MS). In kind it is biochemical. Also noted: For the duplex assay, 3CLpro and HRV3C was added. To be noted: 3CLpro, 30 mins preincubation, class symbols; read-out: SARS-Cov-2 IC50.
Series [3] can be described thus: Cytotoxicity plates without OC43 virus (cell-titer-glo). In kind it is cell-based, human. To be noted: human; HeLa cells without OC43 virus, class symbols. The procedure, abridged: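 Run as a virus-free counterpart of the OC43 cytopathic-effect assay. Attached HeLa cells received compound dilutions in EMEM with 2% FBS and were kept 6 days at 33 °C. Cell viability was then measured by CellTiter-Glo luminescence.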

Series [4] relates to human beta-coronavirus OC43. Briefly: microbe, parasite or virus in culture. In kind it is cell-based.
The target in series [5] is T1, human cathepsin L (Homo sapiens, UniProt P07711).
T1 construct: purchased R&D Systems
Briefly: cathepsin L assay. In kind it is biochemical. To be noted: 10 pM human cathepsin L, Z-FR-AMC 2 μM, class symbols. The procedure, abridged: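 Reactions began by adding 2 μM (final) Z-FR-AMC substrate to 10 pM human cathepsin L that had been preincubated 30 min with inhibitor. Kinetic AMC fluorescence at 355/460 nm over 30 min at 2-min intervals; four-parameter fitting gave IC50 values.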

Series [6] concerns SARS-CoV-2-GHB-03021/2020. Put plainly: microbe, parasite or virus in culture. In kind it is cell-based. To be noted: Severe acute respiratory syndrome coronavirus 2, Vero C1008, 96 h; read-out: VeroE6 + CP (EC50).
Series [7] deals with HRV3C (Human rhinovirus 14, UniProt P03303). Put plainly: HRV3C protease assay (duplex, SAMDI-MS). It is filed as biochemical, HRV. To be noted: 30 mins preincubation. The procedure, abridged:
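Readout is SAMDI mass spectrometry: biotinylated substrates, products and internal standards were immobilized on neutravidin monolayers and product formation taken as the AUC ratio to internal standard. Reactions ran 30 min at ambient temperature after 30 min compound preincubation, in duplex with 3CLpro. IC50 values came from four-parameter curve fitting.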

The subject of series [8] is SARS-CoV-2-GHB-03021/2020. Briefly: SARS-CoV-2 Infection Model in Huh7 Cells. In kind it is cell-based. To be noted: Severe acute respiratory syndrome coronavirus 2, Huh-7, 96 h, SARS-CoV-2, day 4 p.i., MTS.
Series [9] can be described thus: in vitro. The following applies: human.
[10] abbreviates: Betacoronavirus 1, OC43, HeLa, 144 h, OC43 in HeLa cells, 6 days at 33° C., class symbols, read-out: EC50.
[11] abbreviates: HRV3C, bound, read-out: HRV IC50.
Setting [12] is: HRV3C, class symbols, read-out: HRV IC50.

For the molecule `CC(F)(F)c1cccc2[nH]c(C(=O)N3C[C@@H]4CCC[C@@H]4[C@H]3C(=O)N[C@@H](C[C@@H]3CCNC3=O)C(=O)CO)cc12` [Compound 152, (1S,3aR,6aS)-2-[4-(1,1-difluoroethyl)-1H-indole-2-carbonyl]-N-[(2S)-4-hydroxy-3-oxo-1-[(3S)-2-oxopyrrolidin-3-yl]butan-2-yl]-hexahydro-1H-cyclopenta[c]pyrrole-1-carboxamide], the CC50 in series [1] (numeric bounds) and in series [9] was greater than 50 µM in each case. Also, the half-inhibitory concentration (IC50) was 0.02 to 0.2 µM in [2], no less than 10 µM in [5] and greater than 10 µM in [7] (setting [11]). The CC50 at 6 days in [3] is greater than 10 µM. Also, the EC50 lay within 1 to 10 µM in series [4] (setting [10]), 10 to 100 µM in series [6] and 10 to 100 µM in series [8] (class symbols).

In the case of `COc1cccc2[nH]c(C(=O)N3C[C@@H]4CCC[C@@H]4[C@H]3C(=O)N[C@@H](C[C@@H]3CCNC3=O)C(=O)CO)c(F)c12` [Compound 151, (1S,3aR,6aS)-2-(3-fluoro-4-methoxy-1H-indole-2-carbonyl)-N—((S)-4-hydroxy-3-oxo-1-((S)-2-oxopyrrolidin-3-yl)butan-2-yl)octahydrocyclopenta[c]pyrrole-1-carboxamide], the CC50 in series [1] (numeric bounds) and in [9] was greater than 50 µM in each case. The IC50 in [2] was 0.02 to 0.2 µM; in series [5] it was no less than 10 µM; in series [7] (HRV IC50, HRV3C, bound), greater than 10 µM. Further, in series [3], the CC50 at 6 days was greater than 10 µM. In addition, the EC50 was in the range of 1 to 10 µM in series [4] (Betacoronavirus 1, OC43, HeLa, 144 h); 10 to 100 µM in series [6]; 1 to 10 µM in series [8] (class symbols).

As to `O=C(c1ccccc1)c1c[nH]c(C(=O)N2C[C@@H]3CCC[C@@H]3[C@H]2C(=O)N[C@@H](C[C@@H]2CCNC2=O)C(=O)CO)c1` [Compound 84, (1S,3aR,6aS)-2-(4-benzoyl-1H-pyrrole-2-carbonyl)-N-[(2S)-4-hydroxy-3-oxo-1-[(3S)-2-oxopyrrolidin-3-yl]butan-2-yl]-hexahydro-1H-cyclopenta[c]pyrrole-1-carboxamide], the CC50 in series [1] (numeric bounds) and in series [9] was greater than 50 µM throughout. In addition, the IC50 was 0.02 to 0.2 µM in series [2], no less than 10 µM in [5] and 2 to 20 µM in series [7] (setting [12]). The same molecule returned a CC50 at 6 days in series [3] greater than 10 µM. The EC50 in series [4] (setting [10]) was 1 to 10 µM; in series [6] it was 1 to 10 µM; in [8] (numeric bounds) it was greater than 50 µM.

For the molecule `O=C(NC1CC1)C(=O)C(CC1CC2(CC2)NC1=O)NC(=O)[C@@H]1[C@H]2CCC[C@H]2CN1C(=O)c1cc2c(Cl)cc(Cl)cc2[nH]1` (single isomer, unassigned) [Compound 116A, (1S,3aR,6aS)—N-(4-(cyclopropylamino)-3,4-dioxo-1-((R*)-5-oxo-4-azaspiro[2.4]heptan-6-yl)butan-2-yl)-2-(4,6-dichloro-1H-indole-2-carbonyl)octahydrocyclopenta[c]pyrrole-1-carboxamide], the CC50 in [1] (numeric bounds) is greater than 50 µM; in series [9] it was greater than 10 µM. The results for the IC50 in [2], in [5] and in [7] (setting [12]) were 0.02 to 0.2 µM, no less than 10 µM and 0.2 to 2 µM, respectively. For the same molecule, the CC50 at 6 days in series [3] was greater than 10 µM. The EC50 is 0.1 to 1 µM in [4] (OC43 in HeLa cells, 6 days at 33° C., class symbols, read-out: EC50); 1 to 10 µM in [6]; less than 1 µM in series [8] (class symbols).

Consider `COc1cccc2[nH]c(C(=O)N3C[C@H](C(F)(F)F)C[C@H]3C(=O)N[C@@H](C[C@@H]3CCCNC3=O)C(=O)CO)cc12` [Compound 45], for which the CC50 in series [1] (numeric bounds) and in series [9] was greater than 100 µM throughout. For the same molecule, the 50% inhibitory concentration (IC50) in [2] is 0.02 to 0.2 µM; in series [5], no less than 10 µM; in [7] (setting [12]), 2 to 20 µM. For the same molecule, in series [3], the CC50 at 6 days was greater than 10 µM. The results for the 50% effective concentration (EC50) in [4] (setting [10]), in series [6] and in series [8] (class symbols) were 0.1 to 1 µM, less than 1 µM and 1 to 10 µM, respectively.

On to `O=C(NC1CC1)C(=O)[C@H](C[C@@H]1CCNC1=O)NC(=O)[C@@H]1CC2(CCN1C(=O)c1cc3c(Cl)cccc3[nH]1)CC2` [Compound 145], for which the CC50 in series [1] (numeric bounds) and in series [9] was greater than 50 µM in each case. The concentration for half-maximal inhibition (IC50) in [2] is less than 0.02 µM; in series [5] it was 0.1 to 1 µM; in series [7] (setting [12]), 0.02 to 0.2 µM. In series [3], the CC50 at 6 days was greater than 10 µM. For the same molecule, the EC50 in series [4] (setting [10]) was in the range of 1 to 10 µM; in series [6] it was 10 to 100 µM; in [8] (class symbols), 10 to 100 µM.

On to `COc1cccc2[nH]c(C(=O)N3C[C@]4(C[C@H]3C(=O)N[C@@H](C[C@@H]3CCCNC3=O)C(=O)COCc3ccccc3)CC4(F)F)cc12` [Compound 47A, (3S,6S)—N-[(2S)-4-(benzyloxy)-3-oxo-1-[(3S)-2-oxopiperidin-3-yl]butan-2-yl]-1,1-difluoro-5-(4-methoxy-1H-indole-2-carbonyl)-5-azaspiro[2.4]heptane-6-carboxamide], for which the CC50 in [1] (numeric bounds) was greater than 100 µM; in [9], greater than 10 µM. The IC50 in series [2] was 0.02 to 0.2 µM; in [5] it was no less than 10 µM; in [7] (setting [12]), 2 to 20 µM. The same molecule displayed a CC50 at 6 days in series [3] greater than 10 µM. Also, the half-maximal effective concentration (EC50) is less than 0.1 µM in [4] (setting [10]), 1 to 10 µM in series [6] and 1 to 10 µM in series [8] (class symbols).

Turning to `O=C1NCC[C@H]1C[C@H](NC(=O)[C@@H]1[C@@H]2[C@H](CN1C(=O)c1cc3c(Cl)cc(Cl)cc3[nH]1)[C@@H]1C=C[C@H]2C1)C(=O)CO` [Compound 136, (1R,2S,3S,6R,7S)-4-(4,6-dichloro-1H-indole-2-carbonyl)-N-[(2S)-4-hydroxy-3-oxo-1-[(3S)-2-oxopyrrolidin-3-yl]butan-2-yl]-4-azatricyclo[5.2.1.0^{2,6}]dec-8-ene-3-carboxamide], the CC50 in [1] (numeric bounds) and in series [9] was greater than 50 µM each time. Besides, the IC50 in [2] was less than 0.02 µM; in series [5] it was no less than 10 µM; in [7] (setting [12]), 2 to 20 µM. In series [3], this molecule came in with a CC50 at 6 days greater than 10 µM. The EC50 in [4] (setting [10]) was less than 0.1 µM; in series [6], less than 1 µM; in series [8] (class symbols) it was less than 1 µM.

For `COc1cccc2[nH]c(C(=O)N3C[C@H](c4ccccc4)C[C@H]3C(=O)N[C@@H](C[C@@H]3CCNC3=O)C(=O)CO)cc12` [Compound 32], the CC50 in [1] (numeric bounds) and in series [9] was greater than 100 µM throughout. The IC50 in series [2] is 0.02 to 0.2 µM; in series [5], no less than 10 µM; in series [7] (setting [12]), 0.2 to 2 µM. The molecule also registered a CC50 at 6 days in series [3] greater than 10 µM. Besides, the concentration giving a half-maximal response (EC50) is 0.1 to 1 µM in series [4] (setting [10]), 1 to 10 µM in [6] and 1 to 10 µM in [8] (class symbols).

Regarding `O=C1NCC[C@H]1C[C@H](NC(=O)[C@@H]1[C@H]2CCC[C@H]2CN1C(=O)c1cc2c3c(ccc2[nH]1)CCO3)C(=O)CO` [Compound 108, (1S,3aR,6aS)-2-{2H,3H,6H-furo[2,3-e]indole-7-carbonyl}-N-[(2S)-4-hydroxy-3-oxo-1-[(3S)-2-oxopyrrolidin-3-yl]butan-2-yl]-hexahydro-1H-cyclopenta[c]pyrrole-1-carboxamide], the CC50 in series [1] (numeric bounds) and in [9] was greater than 50 µM each time. The IC50 is 0.02 to 0.2 µM in series [2], no less than 10 µM in [5] and greater than 10 µM in series [7] (setting [11]). This molecule also had a CC50 at 6 days in [3] greater than 10 µM. For the same molecule, the EC50 in [4] (setting [10]) was 0.1 to 1 µM; in series [6], 1 to 10 µM; in [8] (class symbols), 10 to 100 µM.

Take `O=C1NCC[C@H]1C[C@H](NC(=O)[C@@H]1[C@H]2[C@H]3CC[C@H](C3)[C@H]2CN1C(=O)c1cc2c(Cl)cc(Cl)cc2[nH]1)C(=O)CO` [Compound 135, (1S,3aR,4R,7S,7aS)-2-(4,6-dichloro-1H-indole-2-carbonyl)-N—((S)-4-hydroxy-3-oxo-1-((S)-2-oxopyrrolidin-3-yl)butan-2-yl)octahydro-1H-4,7-methanoisoindole-1-carboxamide]: the CC50 in [1] (class symbols) and in series [9] was greater than 10 µM each time. The IC50 in series [2] is 0.02 to 0.2 µM; in series [5], no less than 10 µM; in series [7] (HRV IC50, HRV3C, class symbols), 2 to 20 µM. Also, the CC50 at 6 days in [3] is greater than 10 µM. The EC50 in series [4] (setting [10]) was 0.1 to 1 µM; in series [6], less than 1 µM; in series [8] (class symbols), less than 1 µM.

The IC50 is the concentration at which inhibition is half-maximal. The term EC50 denotes the midpoint of the concentration-response curve.
